Results published in patent US20200368312A1 (priority 2017, published 2020).
Values after ≈ are worked out from the molar mass of the structure shown. Where two headings read alike, the source gives them in different places.

How the values were obtained:
[1] = tested on: S. haemolyticus (CoNS); assay: Broth microdilution MIC, S. haemolyticus (CoNS) (Table 7); type: cell-based; details: S. haemolyticus (CoNS) MMX 529 ATCC 29970
[2] = tested on: P. acnes; assay: Broth microdilution MIC, P. acnes (Table 7); type: cell-based
[3] = tested on: S. hominis (CoNS); assay: Broth microdilution MIC, S. hominis (CoNS) (Table 7); type: cell-based; details: S. hominis (CoNS) MMX 667 ATCC 27844
[4] = tested on: C. perfringens; type: cell-based; details: C. perfringens MMX 8351 ATCC 13124
[5] = tested on: MRSA isolate ATCC BAA-1556; assay: MIC, CLSI-guided broth susceptibility testing (Example 10); type: cell-based, Staphylococcus aureus
Description: (§1) MIC Testing: Glycopeptide compounds were dissolved in 100% DMSO. In vitro activities were determined using CLSI-guided broth susceptibility testing to measure drug minimum inhibitory concentrations (MICs) of the compounds against the quality control strain ATCC 29213 (MSSA) and the MRSA isolate ATCC BAA-1556. Glycopeptides are defined as compounds of Formula (I), and their respective R^1, R^2, R^3 and R^4 groups. X is —O— for each compound in Table 2.

[6] = tested on: quality control strain ATCC 29213 (MSSA); assay: as above; type: cell-based, Staphylococcus aureus
Description: as §1

[7] = tested on: Staphylococcus aureus; assay: microbe, parasite or virus in culture; type: cell-based
[8] = tested on: P. micros; assay: Broth microdilution MIC, P. micros (Table 7); type: cell-based; details: P. micros MMX 3546
[9] = tested on: Streptococci; assay: Broth microdilution MIC, Streptococci (Example 11, Table 7); type: cell-based
[10] = tested on: Enterococci; type: cell-based
[11] = tested on: S. epidermidis (CoNS); assay: Broth microdilution MIC, S. epidermidis (CoNS) (Table 7); type: cell-based
[12] = tested on: Clostridium difficile; assay: Broth microdilution MIC, C. difficile, anaerobic, supplemented Brucella Broth (Example 11, Table 7); type: cell-based
[13] = tested on: S. lugdenensis (CoNS); assay: Broth microdilution MIC, S. lugdenensis (CoNS) (Table 7); type: cell-based; details: S. lugdenensis (CoNS) MMX 8724
[14] = tested on: P. anaerobius; assay: Broth microdilution MIC, P. anaerobius (Table 7); type: cell-based; details: P. anaerobius MMX 1208 ATCC 27337

## CCCCCCCCCCNCCN[C@@]1(C)C[C@H](O[C@H]2[C@H](Oc3c4cc5cc3Oc3ccc(cc3Cl)[C@@H](O)[C@@H](NC(=O)[C@@H](CC(C)C)NC)C(=O)N[C@@H](CC(N)=O)C(=O)N[C@H]5C(=O)N[C@H]3C(=O)N[C@H](C(=O)N[C@H](C(=O)O)c5cc(O)c(CNCP(=O)(O)O)c(O)c5-c5cc3ccc5O)[C@H](O)c3ccc(c(Cl)c3)O4)O[C@H](CO)[C@@H](O)[C@@H]2O)O[C@@H](C)[C@H]1O [Telavancin]
[1]
  MIC: 0.06 µg/mL (≈ 0.0342 µM)
[2]; P. acnes MMX 7942 ATCC 6919
  MIC: 0.03 µg/mL (≈ 0.0171 µM)
[2]; P. acnes MMX 7946 ATCC 11827
  MIC: 0.015 µg/mL (≈ 0.00854 µM)
[3]
  MIC: 0.06 µg/mL (≈ 0.0342 µM)
[4]
  MIC: 0.015 µg/mL (≈ 0.00854 µM)
[5]
  MIC Values MRSA 1556: 0.063 µg/mL (≈ 0.0359 µM)
[6]
  MIC Values MSSA 29213: 0.063 µg/mL (≈ 0.0359 µM)
[7]; MRSA strains (Table 5), […]
  RV40 activity as compared to Comparator: 6 ×
[7]; S. aureus MMX 100 ATCC 29213, MSSA (quality control)
  MIC: 0.06 µg/mL (≈ 0.0342 µM)
[7]; S. aureus MMX 1723, Mu50, VISA
  MIC: 0.5 µg/mL (≈ 0.285 µM)
[7]; S. aureus MMX 2010, MRSA
  MIC: 0.06 µg/mL (≈ 0.0342 µM)
[7]; S. aureus MMX 2011 ATCC BAA-1756, MRSA
  MIC: 0.06 µg/mL (≈ 0.0342 µM)
[7]; S. aureus MMX 2124, VISA, DaptoNS
  MIC: 0.5 µg/mL (≈ 0.285 µM)
[7]; S. aureus MMX 2490, MSSA
  MIC: 0.12 µg/mL (≈ 0.0684 µM)
[7]; S. aureus MMX 3982, MRSA
  MIC: 0.06 µg/mL (≈ 0.0342 µM)
[7]; S. aureus MMX 4658, VISA
  MIC: 0.12 µg/mL (≈ 0.0684 µM)
[7]; S. aureus MMX 4660, VISA
  MIC: 0.12 µg/mL (≈ 0.0684 µM)
[7]; S. aureus MMX 4665, hVISA
  MIC: 0.25 µg/mL (≈ 0.142 µM)
[7]; S. aureus MMX 4675 ATCC BAA-1556, MRSA
  MIC: 0.06 µg/mL (≈ 0.0342 µM)
[7]; S. aureus MMX 5717 ATCC 33591, MRSA
  MIC: 0.06 µg/mL (≈ 0.0342 µM)
[7]; S. aureus MMX 5985, MRSA
  MIC: 0.06 µg/mL (≈ 0.0342 µM)
[7]; S. aureus MMX 5989, Mu3, hVISA
  MIC: 0.12 µg/mL (≈ 0.0684 µM)
[7]; S. aureus MMX 5999, MRSA
  MIC: 0.06 µg/mL (≈ 0.0342 µM)
[7]; S. aureus MMX 7899, MRSA
  MIC: 0.06 µg/mL (≈ 0.0342 µM)
[7]; S. aureus MMX 7900, MRSA
  MIC: 0.06 µg/mL (≈ 0.0342 µM)
[7]; S. aureus MMX 7901, MRSA
  MIC: 0.03 µg/mL (≈ 0.0171 µM)
[7]; S. aureus MMX 7902, MRSA
  MIC: 0.06 µg/mL (≈ 0.0342 µM)
[7]; S. aureus MMX 7903, MRSA
  MIC: 0.06 µg/mL (≈ 0.0342 µM)
[7]; S. aureus MMX 7907, MSSA
  MIC: 0.06 µg/mL (≈ 0.0342 µM)
[7]; S. aureus MMX 7908, MSSA
  MIC: 0.12 µg/mL (≈ 0.0684 µM)
[8]
  MIC: 0.06 µg/mL (≈ 0.0342 µM)
[9]; S. agalactiae MMX 427 ATCC 13813
  MIC: 0.06 µg/mL (≈ 0.0342 µM)
[9]; S. agalactiae MMX 4088
  MIC: 0.06 µg/mL (≈ 0.0342 µM)
[9]; S. agalactiae MMX 4115, erm^R
  MIC: 0.06 µg/mL (≈ 0.0342 µM)
[9]; S. anginosus (AGS) MMX 1201 ATCC 33397
  MIC: 0.06 µg/mL (≈ 0.0342 µM)
[9]; S. constellatus (AGS) MMX 5677
  MIC: 0.03 µg/mL (≈ 0.0171 µM)
[9]; S. dysgalactiae MMX 5121
  MIC: 0.12 µg/mL (≈ 0.0684 µM)
[9]; S. dysgalactiae MMX 5123
  MIC: 0.25 µg/mL (≈ 0.142 µM)
[9]; S. dysgalactiae MMX 5124
  MIC: 0.03 µg/mL (≈ 0.0171 µM)
[9]; S. mitis (MGS) MMX 1205 ATCC 49456
  MIC: 0.06 µg/mL (≈ 0.0342 µM)
[9]; S. oralis (MGS) MMX 5821
  MIC: 0.06 µg/mL (≈ 0.0342 µM)
[9]; S. pneumoniae MMX 432, PRSP
  MIC: 0.03 µg/mL (≈ 0.0171 µM)
[9]; S. pneumoniae MMX 747
  MIC: 0.015 µg/mL (≈ 0.00854 µM)
[9]; S. pneumoniae MMX 1195 ATCC 49619, PISP
  MIC: 0.03 µg/mL (≈ 0.0171 µM)
[9]; S. pyogenes MMX 404 ATCC 19615
  MIC: 0.06 µg/mL (≈ 0.0342 µM)
[9]; S. pyogenes MMX 946, ermR
  MIC: 0.06 µg/mL (≈ 0.0342 µM)
[9]; S. pyogenes MMX 8778
  MIC: 0.06 µg/mL (≈ 0.0342 µM)
[10]; E. faecalis MMX 101 ATCC 29212, VSE
  MIC: 0.12 µg/mL (≈ 0.0684 µM)
[10]; E. faecalis MMX 1086, VanA VRE
  MIC: 1 µg/mL (≈ 0.57 µM)
[10]; E. faecalis MMX 4176
  MIC: 0.25 µg/mL (≈ 0.142 µM)
[10]; E. faecium MMX 173, VanB VRE
  MIC: 0.06 µg/mL (≈ 0.0342 µM)
[10]; E. faecium MMX 851, VanA VRE
  MIC: 2 µg/mL (≈ 1.14 µM)
[10]; E. faecium MMX 4204
  MIC: 0.06 µg/mL (≈ 0.0342 µM)
[10]; VRE, MIC values elevated relative to vancomycin-susceptible enterococci (VSE)
  activity against vancomycin-resistant enterococci (VRE): potent activity
[11]; S. epidermidis (CoNS) MMX 762, MRSE
  MIC: 0.12 µg/mL (≈ 0.0684 µM)
[11]; S. epidermidis (CoNS) MMX 5145, MRSE
  MIC: 0.03 µg/mL (≈ 0.0171 µM)
[12]; C. difficile MMX 4381 ATCC 700057, toxinAB-negative
  MIC: 0.12 µg/mL (≈ 0.0684 µM)
[12]; C. difficile MMX 4994 ATCC BAA-1805, ribotype 027
  MIC: 0.12 µg/mL (≈ 0.0684 µM)
[12]; C. difficile MMX 5668 ATCC BAA-1870, NAP1/027
  MIC: 0.12 µg/mL (≈ 0.0684 µM)
[13]
  MIC: 0.06 µg/mL (≈ 0.0342 µM)
[14]
  MIC: 0.03 µg/mL (≈ 0.0171 µM)
